Laboratory results published in article PMC12155096 (International Journal of Molecular Sciences, 2025).

Molecular target: T1, human CYP2C9 (Homo sapiens, UniProt P11712)
Assay: biochemical
Settings: CYP2C9 AC50 (half-maximal activity concentration)

T1 sequence (P11712 whole entry): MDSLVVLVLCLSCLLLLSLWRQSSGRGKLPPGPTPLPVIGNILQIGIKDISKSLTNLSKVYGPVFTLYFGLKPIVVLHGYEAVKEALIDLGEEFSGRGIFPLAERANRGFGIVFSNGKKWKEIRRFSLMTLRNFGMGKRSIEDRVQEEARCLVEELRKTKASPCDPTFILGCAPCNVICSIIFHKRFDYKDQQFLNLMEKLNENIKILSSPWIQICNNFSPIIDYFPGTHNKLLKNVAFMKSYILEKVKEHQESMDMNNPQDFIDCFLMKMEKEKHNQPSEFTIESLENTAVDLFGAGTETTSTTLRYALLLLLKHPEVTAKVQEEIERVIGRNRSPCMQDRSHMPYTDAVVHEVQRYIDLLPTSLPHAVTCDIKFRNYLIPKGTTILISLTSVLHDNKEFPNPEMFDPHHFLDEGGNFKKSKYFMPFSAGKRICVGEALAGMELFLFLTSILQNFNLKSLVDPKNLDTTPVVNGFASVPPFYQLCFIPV

| Compound | AC50 [µM] |
| --- | --- |
| CC(=O)O[C@]1(C(C)=O)CC[C@H]2[C@@H]3C=C(C)C4=CC(=O)CC[C@]4(C)[C@H]3CC[C@@]21C [Megestrol acetate] | 8.11 |
| C=C1C[C@H]2[C@@H]3C=C(C)C4=CC(=O)CC[C@]4(C)[C@H]3CC[C@]2(C)[C@@]1(OC(C)=O)C(C)=O [Melengestrol acetate] | 16.8 |
| CCCCCCCCOc1ccc(C(=O)c2ccccc2)c(O)c1 [Octabenzone] | 13.8 |
| CC(C)N(C(=O)SCC(Cl)=C(Cl)Cl)C(C)C [Tri-allate] | 33 |
| ClC(Cl)=C(c1ccc(Cl)cc1)c1ccccc1Cl [o,p'-DDE] | 21 |
| O=C(O)C(c1ccc(Cl)cc1)c1ccc(Cl)cc1 [p,p'-DDA] | 15.4 |

Molecular target: T2, human CYP2C19 (Homo sapiens, UniProt P33261)
Assay: biochemical
Settings: CYP2C19 AC50 (half-maximal activity concentration)

T2 sequence (P33261 whole entry): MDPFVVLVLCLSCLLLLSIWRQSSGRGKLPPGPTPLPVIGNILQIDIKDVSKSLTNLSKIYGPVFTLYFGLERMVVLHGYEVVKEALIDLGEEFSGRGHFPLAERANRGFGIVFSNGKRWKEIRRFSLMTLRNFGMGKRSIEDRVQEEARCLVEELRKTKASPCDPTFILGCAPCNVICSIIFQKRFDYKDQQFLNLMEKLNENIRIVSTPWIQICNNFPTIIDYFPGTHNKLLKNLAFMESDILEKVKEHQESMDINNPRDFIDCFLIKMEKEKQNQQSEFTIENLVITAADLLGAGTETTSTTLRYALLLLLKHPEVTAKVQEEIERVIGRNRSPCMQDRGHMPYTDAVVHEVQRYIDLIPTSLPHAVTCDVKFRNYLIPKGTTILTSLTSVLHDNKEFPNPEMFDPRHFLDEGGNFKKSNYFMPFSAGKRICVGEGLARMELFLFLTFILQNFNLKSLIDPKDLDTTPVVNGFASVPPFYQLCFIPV

| Compound | AC50 [µM] |
| --- | --- |
| CC(=O)O[C@]1(C(C)=O)CC[C@H]2[C@@H]3C=C(C)C4=CC(=O)CC[C@]4(C)[C@H]3CC[C@@]21C [Megestrol acetate] | 7.2 |
| C=C1C[C@H]2[C@@H]3C=C(C)C4=CC(=O)CC[C@]4(C)[C@H]3CC[C@]2(C)[C@@]1(OC(C)=O)C(C)=O [Melengestrol acetate] | 20.3 |
| CCCCCCCCOc1ccc(C(=O)c2ccccc2)c(O)c1 [Octabenzone] | 53.3 |
| CC(C)N(C(=O)SCC(Cl)=C(Cl)Cl)C(C)C [Tri-allate] | 10.3 |
| ClC(Cl)=C(c1ccc(Cl)cc1)c1ccccc1Cl [o,p'-DDE] | 6.84 |
| O=C(O)C(c1ccc(Cl)cc1)c1ccc(Cl)cc1 [p,p'-DDA] | 24.5 |

Molecular target: T1, human CYP2C9
Assay: not given
Settings: not given

| Compound | CYP2C9 AC50 (half-maximal activity concentration) |
| --- | --- |
| Clc1cc(Cl)c(-c2c(Cl)c(Cl)cc(Cl)c2Cl)cc1Cl | Inactive |
| O=C(O)c1cccc(C(=O)O)c1 [1,3-Benzenedicarboxylic acid] | Inconclusive activator |
| CCCCC(C=O)CC (centres unmarked) [2-Ethylhexanal] | Inactive |
| O=C(O)c1cccc(Oc2ccccc2)c1 [3-Phenoxybenzoic acid] | Inactive |
| Cc1ccc(C(=O)O)cc1[N+](=O)[O-] [4-Methyl-3-nitrobenzoic acid] | Inactive |
| COc1cc(Nc2c(C#N)cnc3cc(OCCCN4CCN(C)CC4)c(OC)cc23)c(Cl)cc1Cl [Bosutinib] | Inactive |
| O=C(CCCN1CCC(O)(c2ccc(Br)cc2)CC1)c1ccc(F)cc1 [Bromperidol] | Inactive |

Molecular target: human CYP2D6 (Homo sapiens, UniProt P10635)
Assay: not given
Settings: not given

Chain of human CYP2D6 (P10635 whole entry): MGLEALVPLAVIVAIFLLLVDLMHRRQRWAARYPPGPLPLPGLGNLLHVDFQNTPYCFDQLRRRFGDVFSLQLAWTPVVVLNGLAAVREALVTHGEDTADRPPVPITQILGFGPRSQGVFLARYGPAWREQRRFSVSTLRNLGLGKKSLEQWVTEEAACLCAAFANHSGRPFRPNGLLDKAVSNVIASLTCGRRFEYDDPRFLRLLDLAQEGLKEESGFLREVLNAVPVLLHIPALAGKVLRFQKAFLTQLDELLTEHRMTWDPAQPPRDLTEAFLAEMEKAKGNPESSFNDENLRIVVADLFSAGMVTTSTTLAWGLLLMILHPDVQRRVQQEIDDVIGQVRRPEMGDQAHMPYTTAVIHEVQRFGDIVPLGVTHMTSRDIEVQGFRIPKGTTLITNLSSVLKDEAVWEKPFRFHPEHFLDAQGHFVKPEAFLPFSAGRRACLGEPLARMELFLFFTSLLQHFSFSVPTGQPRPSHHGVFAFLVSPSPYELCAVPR

| Compound | CYP2D6 AC50 (half-maximal activity concentration) |
| --- | --- |
| Clc1cc(Cl)c(-c2c(Cl)c(Cl)cc(Cl)c2Cl)cc1Cl | Inactive |
| O=C(O)c1cccc(C(=O)O)c1 [1,3-Benzenedicarboxylic acid] | Inactive |
| CCCCC(C=O)CC (centres unmarked) [2-Ethylhexanal] | Inactive |
| O=C(O)c1cccc(Oc2ccccc2)c1 [3-Phenoxybenzoic acid] | Inactive |
| Cc1ccc(C(=O)O)cc1[N+](=O)[O-] [4-Methyl-3-nitrobenzoic acid] | Inactive |
| COc1cc(Nc2c(C#N)cnc3cc(OCCCN4CCN(C)CC4)c(OC)cc23)c(Cl)cc1Cl [Bosutinib] | Inconclusive inhibitor |
| O=C(CCCN1CCC(O)(c2ccc(Br)cc2)CC1)c1ccc(F)cc1 [Bromperidol] | Inconclusive inhibitor |
| CC(=O)O[C@]1(C(C)=O)CC[C@H]2[C@@H]3C=C(C)C4=CC(=O)CC[C@]4(C)[C@H]3CC[C@@]21C [Megestrol acetate] | Inactive |
| C=C1C[C@H]2[C@@H]3C=C(C)C4=CC(=O)CC[C@]4(C)[C@H]3CC[C@]2(C)[C@@]1(OC(C)=O)C(C)=O [Melengestrol acetate] | Inactive |
| CCCCCCCCOc1ccc(C(=O)c2ccccc2)c(O)c1 [Octabenzone] | Inactive |
| CC(C)N(C(=O)SCC(Cl)=C(Cl)Cl)C(C)C [Tri-allate] | Inactive |
| ClC(Cl)=C(c1ccc(Cl)cc1)c1ccccc1Cl [o,p'-DDE] | Inactive |
| O=C(O)C(c1ccc(Cl)cc1)c1ccc(Cl)cc1 [p,p'-DDA] | Inactive |

Molecular target: T3, human CYP1A2 (Homo sapiens, UniProt P05177)
T3 sequence (P05177 1-516): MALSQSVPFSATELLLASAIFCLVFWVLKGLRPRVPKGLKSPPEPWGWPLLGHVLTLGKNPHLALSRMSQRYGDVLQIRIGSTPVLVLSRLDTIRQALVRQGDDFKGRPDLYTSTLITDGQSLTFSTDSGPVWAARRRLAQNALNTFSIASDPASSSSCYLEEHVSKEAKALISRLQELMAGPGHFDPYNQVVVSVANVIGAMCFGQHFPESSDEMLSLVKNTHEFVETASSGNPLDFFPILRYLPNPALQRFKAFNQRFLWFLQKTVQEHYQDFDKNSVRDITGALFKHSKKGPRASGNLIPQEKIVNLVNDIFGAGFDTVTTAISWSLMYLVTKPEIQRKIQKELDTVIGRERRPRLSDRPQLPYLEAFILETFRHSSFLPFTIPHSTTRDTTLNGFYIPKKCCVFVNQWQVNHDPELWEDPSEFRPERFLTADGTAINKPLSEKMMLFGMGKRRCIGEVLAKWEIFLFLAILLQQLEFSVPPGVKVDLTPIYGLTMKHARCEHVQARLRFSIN
Assay: not given
Settings: not given

| Compound | CYP1A2 AC50 (half-maximal activity concentration) |
| --- | --- |
| Clc1cc(Cl)c(-c2c(Cl)c(Cl)cc(Cl)c2Cl)cc1Cl | Inactive |
| O=C(O)c1cccc(C(=O)O)c1 [1,3-Benzenedicarboxylic acid] | Inactive |
| CCCCC(C=O)CC (centres unmarked) [2-Ethylhexanal] | Inactive |
| O=C(O)c1cccc(Oc2ccccc2)c1 [3-Phenoxybenzoic acid] | Inactive |
| Cc1ccc(C(=O)O)cc1[N+](=O)[O-] [4-Methyl-3-nitrobenzoic acid] | Inconclusive inhibitor |
| COc1cc(Nc2c(C#N)cnc3cc(OCCCN4CCN(C)CC4)c(OC)cc23)c(Cl)cc1Cl [Bosutinib] | Inactive |
| O=C(CCCN1CCC(O)(c2ccc(Br)cc2)CC1)c1ccc(F)cc1 [Bromperidol] | Inactive |
| CC(=O)O[C@]1(C(C)=O)CC[C@H]2[C@@H]3C=C(C)C4=CC(=O)CC[C@]4(C)[C@H]3CC[C@@]21C [Megestrol acetate] | Inactive |
| C=C1C[C@H]2[C@@H]3C=C(C)C4=CC(=O)CC[C@]4(C)[C@H]3CC[C@]2(C)[C@@]1(OC(C)=O)C(C)=O [Melengestrol acetate] | Inactive |
| CCCCCCCCOc1ccc(C(=O)c2ccccc2)c(O)c1 [Octabenzone] | Inconclusive inhibitor |
| CC(C)N(C(=O)SCC(Cl)=C(Cl)Cl)C(C)C [Tri-allate] | Inconclusive inhibitor |
| ClC(Cl)=C(c1ccc(Cl)cc1)c1ccccc1Cl [o,p'-DDE] | Inactive |
| O=C(O)C(c1ccc(Cl)cc1)c1ccc(Cl)cc1 [p,p'-DDA] | Inactive |

Molecular target: CYP3A4 (Homo sapiens, UniProt P08684)
Assay: biochemical
Settings: not given

Chain of CYP3A4 (P08684 whole entry): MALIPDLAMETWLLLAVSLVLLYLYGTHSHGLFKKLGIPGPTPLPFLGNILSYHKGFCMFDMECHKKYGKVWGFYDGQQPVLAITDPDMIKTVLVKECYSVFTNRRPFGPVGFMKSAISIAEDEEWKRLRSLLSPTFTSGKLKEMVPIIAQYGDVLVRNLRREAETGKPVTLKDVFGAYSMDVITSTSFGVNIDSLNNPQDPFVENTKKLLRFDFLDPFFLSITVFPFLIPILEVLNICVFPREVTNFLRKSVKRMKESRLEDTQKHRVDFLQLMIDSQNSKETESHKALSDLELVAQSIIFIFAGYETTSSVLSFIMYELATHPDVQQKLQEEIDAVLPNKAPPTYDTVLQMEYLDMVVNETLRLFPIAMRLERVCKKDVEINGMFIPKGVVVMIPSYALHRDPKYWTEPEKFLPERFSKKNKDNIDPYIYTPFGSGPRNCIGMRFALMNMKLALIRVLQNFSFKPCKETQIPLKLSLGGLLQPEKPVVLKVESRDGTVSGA

| Compound | AC50 [µM] |
| --- | --- |
| CCCCC(C=O)CC (centres unmarked) [2-Ethylhexanal] | 45.1 |
| O=C(O)c1cccc(Oc2ccccc2)c1 [3-Phenoxybenzoic acid] | 35.6 |

Same assay, conditions: CYP3A4 AC50 (half-maximal activity concentration)

| Compound | AC50 [µM] |
| --- | --- |
| Clc1cc(Cl)c(-c2c(Cl)c(Cl)cc(Cl)c2Cl)cc1Cl | 24.9 |
| O=C(O)c1cccc(C(=O)O)c1 [1,3-Benzenedicarboxylic acid] | 9.6 |
| Cc1ccc(C(=O)O)cc1[N+](=O)[O-] [4-Methyl-3-nitrobenzoic acid] | 35.3 |
| COc1cc(Nc2c(C#N)cnc3cc(OCCCN4CCN(C)CC4)c(OC)cc23)c(Cl)cc1Cl [Bosutinib] | 3.48 |
| O=C(CCCN1CCC(O)(c2ccc(Br)cc2)CC1)c1ccc(F)cc1 [Bromperidol] | 4.92 |
| CC(=O)O[C@]1(C(C)=O)CC[C@H]2[C@@H]3C=C(C)C4=CC(=O)CC[C@]4(C)[C@H]3CC[C@@]21C [Megestrol acetate] | 2.16 |
| C=C1C[C@H]2[C@@H]3C=C(C)C4=CC(=O)CC[C@]4(C)[C@H]3CC[C@]2(C)[C@@]1(OC(C)=O)C(C)=O [Melengestrol acetate] | 4.92 |
| CCCCCCCCOc1ccc(C(=O)c2ccccc2)c(O)c1 [Octabenzone] | 26.2 |
| CC(C)N(C(=O)SCC(Cl)=C(Cl)Cl)C(C)C [Tri-allate] | 2.47 |
| ClC(Cl)=C(c1ccc(Cl)cc1)c1ccccc1Cl [o,p'-DDE] | 22.9 |
| O=C(O)C(c1ccc(Cl)cc1)c1ccc(Cl)cc1 [p,p'-DDA] | 68.4 |

Molecular target: T2, human CYP2C19
Assay: not given
Settings: not given

| Compound | CYP2C19 AC50 (half-maximal activity concentration) |
| --- | --- |
| Clc1cc(Cl)c(-c2c(Cl)c(Cl)cc(Cl)c2Cl)cc1Cl | Inconclusive activator |
| O=C(O)c1cccc(C(=O)O)c1 [1,3-Benzenedicarboxylic acid] | Inactive |
| CCCCC(C=O)CC (centres unmarked) [2-Ethylhexanal] | Inactive |
| O=C(O)c1cccc(Oc2ccccc2)c1 [3-Phenoxybenzoic acid] | Inactive |
| Cc1ccc(C(=O)O)cc1[N+](=O)[O-] [4-Methyl-3-nitrobenzoic acid] | Inactive |
| COc1cc(Nc2c(C#N)cnc3cc(OCCCN4CCN(C)CC4)c(OC)cc23)c(Cl)cc1Cl [Bosutinib] | Inactive |
| O=C(CCCN1CCC(O)(c2ccc(Br)cc2)CC1)c1ccc(F)cc1 [Bromperidol] | Inactive |
